Laboratory results as given in US20260240869A1, “ANTIPSEUDOMONAL FUSIDIC ACID COMPOUNDS” (priority 2022, published 2026).
Values after ≈ are worked out from the molar mass of the structure shown. Read-outs that look alike come from different tables or passages of the source.

Legend:
[1] = system: P. aeruginosa PAΔ6; experiment: LC-MS/MS whole-cell accumulation assay, PAΔ6; format: cell-based, Pseudomonas aeruginosa; details: for Fold change (Accum): PAΔ6 Accum / WT Accum (Table 7); for PAΔ6 Accum: ± s.e.m. (Table 7)
Method: (§1) Accumulation Assay. The accumulation assay was performed in triplicate in batches of ten samples, with each batch containing tetracycline or ciprofloxacin as a positive control. P. aeruginosa PAO1, PAO1 A6, PA14, PA14 A40, and PA1280, and E. coli MG1655 were used in these experiments. For each replicate, 2.5 mL (E. coli) or 5 mL (P. aeruginosa) of an overnight culture was diluted into 250 mL of fresh Luria-Bertani broth (Lennox) or Tryptic Soy Broth (TSB) and grown at 37° C. with shaking to an optical density (OD600) of 0.55-0.60. The bacteria were pelleted at 3220 r.c.f. for 10 min at 4° C., and the supernatant was discarded. The pellets were resuspended in 40 mL of phosphate buffered saline (PBS) and pelleted as before, and the supernatant was discarded. The pellets were resuspended in 8.8 mL of fresh PBS and aliquoted into ten, 1.5 mL Eppendorf tubes (875 μL each). The number of colony-forming units (CFUs) was determined by a calibration curve. The samples were equilibrated at 37° C. with shaking for 5 min; compound was added (final concentration=50 μM), and then the samples were incubated at 37° C. with shaking for either 10 min. These time points were short enough to minimize metabolic and growth changes (no changes in OD600 or CFU count observed). After incubation, 800 μL of the cultures was carefully layered on 700 μL of silicone oil (9:1 AR20/Sigma High Temperature, cooled to −78° C.). Bacteria were pelleted through the oil by centrifuging at 13 000 r.c.f. for 2 min at room temperature (with the supernatant remaining above the oil); the supernatant and oil were then removed by pipetting. To lyse the samples, each pellet was dissolved in […] of water, and then, they were subjected to three (E. coli) or four (P. aeruginosa) freeze-thaw cycles of 3 min in liquid nitrogen followed by 3 min in a water bath at 65° C. P. aeruginosa samples were then treated with 50 µM DNase and RNase and incubated at 37° C. for 15 minutes. The lysates were pelleted at 13 000 r.c.f. for 2 min at room temperature, and the supernatant was collected ([…]). The debris was resuspended in 100 μL of methanol and pelleted as before. The supernatants were removed and combined with the previous supernatants collected. Finally, the remaining debris was removed by centrifuging at 20 000 r.c.f. for 10 min at room temperature. Supernatants were analyzed by LC-MS/MS.
(§2) Samples were analyzed with the 5500 QTRAP LC/MS/MS system (AB Sciex) with a 1200 series HPLC system (Agilent Technologies) including a degasser, an autosampler, and a binary pump. Liquid chromatography separation was performed on an Agilent SB-Aq column (4.6×50 mm, 5 μm) (Agilent Technologies) with mobile phase A (0.1% formic acid in water) and mobile phase B (0.1% formic acid in acetonitrile). The flow rate was 0.3 mL/min. The linear gradient was as follows: 0-3 min, 100% mobile phase A; 10-15 min, 2% mobile phase A; 15.5-21 min, 100% mobile phase A. The autosampler was set at 5° C. The injection volume was 15 μL. Mass spectra were acquired with both positive electrospray ionization at the ion spray voltage of 5500 V and negative electrospray ionization at the ion spray voltage of −4500 V. The source temperature was 450° C. The curtain gas, ion source gas 1, and ion source gas 2 were 33, 50, and 65, respectively. Multiple reaction monitoring was used to quantify the metabolites. Power analysis was not used to determine the number of replicates. Error bars represent the standard error of the mean of three biological replicates. The statistical significance of the accumulation was determined using a two sample Welch's t test (one-tailed test, assuming unequal variance) relative to the negative controls. All compounds evaluated in the biological assays were >95% pure.

[2] = system: P. aeruginosa PAO1; experiment: MIC, CLSI broth microdilution, P. aeruginosa PAO1; format: cell-based, Pseudomonas aeruginosa; details: for MIC: Pseudomonas aeruginosa
Method: (§3) Antimicrobial Susceptibility Tests. Susceptibility testing was performed in biological triplicate, using the microdilution broth method as outlined by the Clinical and Laboratory Standards Institute. Bacteria were cultured with cation-adjusted Meuller-Hinton broth (Sigma-Aldrich; catalogue number: 90922) or Luria-Bertani (LB) broth (Lennox) in round-bottom 96-well plates (Corning; catalogue number: 3788).

[3] = system: P. aeruginosa PAO1; experiment: LC-MS/MS whole-cell accumulation assay, P. aeruginosa PAO1; format: cell-based, Pseudomonas aeruginosa; details: for WT Accum: WT PAO1, ± s.e.m. (Table 7); for PA accum.: P. aeruginosa, value ± s.e.m. (Chart 2)
Method: as §1, §2
MBN assay. Assays measuring permeabilization by polymyxin B nonapeptide (PMBN) were performed as above, with the addition of 8 μg/mL PMBN immediately before the compound of interest was added.

[4] = system: P. aeruginosa PAΔ6; experiment: MIC, efflux pump knockout strain PAΔ6; format: cell-based, Pseudomonas aeruginosa; details: for Fold change (MIC): WT MIC / PAΔ6 MIC (Table 7)
Method: as §3

[5] = system: WT EC; details: retrospective literature analysis (Table 6); cited from earlier work
[6] = system: WT PA; details: retrospective literature analysis (Table 6); cited from earlier work
[7] = system: tolC EC; details: retrospective literature analysis (Table 6); cited from earlier work
[8] = system: E. coli MG1655; experiment: LC-MS/MS whole-cell accumulation assay, E. coli MG1655; format: cell-based; details: E. coli, value ± s.e.m. (Chart 2)
Method: as §1, §2

[9] = WT P. aeruginosa PAO1, MH or LB broth (Table 7), read-out: WT MIC

For `Cc1cc(NS(=O)(=O)c2ccc(N)cc2)no1` [Sulfamethoxazole], the “Fold change (Accum)” value [1] was 4.2, the “PAΔ6 Accum” value [1] was 420 ± 15 nmol/10^12 CFUs and the MIC [2, 9] was > 64 µg/mL. The “WT Accum” value [3] was 101 ± 26 nmol/10^12 CFUs, the “PAΔ6 MIC” value ([4]; MH or LB broth (Table 7)) was 4 µg/mL and the “Fold change (MIC)” value [4] was >16.
In the case of `C=C[C@]1(C)C[C@@H](OC(=O)CSC(C)(C)CNC(=O)[C@H](N)C(C)C)[C@]2(C)[C@H](C)CC[C@]3(CCC(=O)[C@H]32)[C@@H](C)[C@@H]1O` [Valnemulin], the “change of accumulation in efflux pump knockout PAΔ6 versus WT PAO1” value ([1]; FIG. 1c) is reported as “increase in accumulation”, the MIC ([2]; PAO1, read-out: PAO1 MIC) is reported as 256 µg/mL (≈ 453 µM) and the MIC ([2]; PAO1, read-out: WT MIC) is reported as 256 µg/mL (≈ 453 µM). The “PAO1 + PMBN MIC” value ([2]; co-treatment of 8 μg/mL of PMBN, MH broth) was 1 µg/mL, the “change of accumulation upon membrane permeabilization” value ([3]; treatment with PMBN, FIG. 1b) was “significant increase in accumulation” and the Fold change ([4]; MIC ratio WT PAO1 / PAΔ6 (Table 2)) was 2048. The “PAΔ6 MIC” value ([4]; efflux pump KO strain, MH or LB broth (Table 2)) was 0.125 µg/mL.
With `COc1cc(Cc2cnc(N)nc2N)cc(OC)c1OC` [Trimethoprim] the “Fold change (Accum)” value [1] was 2.6, the “PAΔ6 Accum” value [1] was 356 ± 28 nmol/10^12 CFUs and the MIC [2, 9] was > 512 µg/mL. For the same compound, the “WT Accum” value [3] was 136 ± 11 nmol/10^12 CFUs, the “PAΔ6 MIC” value ([4]; MH or LB broth (Table 7)) was 2 µg/mL and the “Fold change (MIC)” value [4] was >256.
For `Cc1nc(-c2ccc(C(C)(C)C)cc2)ncc1C(=O)N[C@@H](CCN)C(=O)N(C)[C@@H]1C(=O)N[C@@H](C)C(=O)N[C@H](C(=O)NCC#N)Cc2ccc(OCCN)c(c2)-c2cc1ccc2OCCN` [Compound G0775], the “WT EC MIC” value [5] is given as 0.125 µg/mL, the “WT PA MIC” value [6] is given as 2 µg/mL and the “tolC EC MIC” value [7] is given as 0.063 µg/mL.
`N[C@H]1CO[C@H]2[C@@H]1OC[C@H]2OS(=O)(=O)c1ccc(-c2ccccc2)cc1` [Compound 48] showed an EC accum. [8] of 1965 ± 291 nmol/10^12 CFUs and a PA accum. [3] of 282 ± 37 nmol/10^12 CFUs.
`N[C@H]1CO[C@H]2[C@@H]1OC[C@H]2OS(=O)(=O)c1ccc(Br)cc1` [Compound 49] showed an EC accum. [8] of 1647 ± 108 nmol/10^12 CFUs and a PA accum. [3] of 217 ± 3 nmol/10^12 CFUs.
`CN1C(=O)CCc2cc(-c3cncc4c3CCC[C@H]4N)ccc21` [Compound 53] gave an EC accum. [8] of 437 ± 28 nmol/10^12 CFUs and a PA accum. [3] of 282 ± 37 nmol/10^12 CFUs.
For `CC(=O)O[C@H]1C[C@@]2(C)[C@@H](C[C@@H](O)[C@H]3[C@@]4(C)CC[C@@H](O)[C@@H](C)[C@@H]4CC[C@@]32C)/C1=C(\CCC=C(C)C)C(=O)NCCCNCCCNCCCN` [FA polyamine], the “antibacterial activity (in words)” value ([2]; Chart 6, strain not given) was “no longer has potent antibacterial activity” and the “increase in accumulation relative to FA” value ([3]; text b129) was 30 -fold.
For `CCNc1cc(F)cc2c1[nH]c1ncc(-c3cnc(OC)nc3)c(-n3cc(CN)c(C(F)(F)F)n3)c12` [Compound 17r], the “WT EC MIC” value [5] is given as 0.31 µg/mL and the “WT PA MIC” value [6] is given as 1.3 µg/mL.
For `Cc1nc(-c2ccc(C(C)(C)C)cc2)ncc1C(=O)N[C@@H](CCO)C(=O)N(C)[C@@H]1C(=O)N[C@@H](C)C(=O)N[C@H](C(=O)NCC#N)Cc2ccc(O)c(c2)-c2cc1ccc2O` [Compound G8126], the “WT EC MIC” value [5] is listed as 32 µg/mL and the “WT PA MIC” value [6] is listed as >64 µg/mL.
For `Cc1ccc2c(C)c3c(c(O)c2c1O)C(=O)[C@]1(O)C(=O)C(C(N)=O)=C(O)[C@H](N)[C@@H]1C3` [CDCHD], the “WT PA MIC” value [6] is given as 1 µg/mL and the “tolC EC MIC” value [7] is given as 0.25 µg/mL.
For `Cc1ccc(S(=O)(=O)O[C@@H]2CO[C@H]3[C@@H]2OC[C@@H]3N)cc1` [Compound 50], the EC accum. [8] was 877 ± 29 nmol/10^12 CFUs and the PA accum. [3] was 163 ± 39 nmol/10^12 CFUs.
